In ChEMBL document CHEMBL3045111, “Synthesis and herbicidal activities of novel 3-(substituted benzyloxy or phenoxy)-6-methyl-4-(3-trifluoromethylphenyl)pyridazine derivatives” (2012):

Key:
Assay type in all cases: functional
[1] = tested on: Brassica rapa subsp. oleifera; test: Post-emergence herbicidal activity against one-leaf stage Brassica rapa subsp. oleifera under greenhouse condition at 750 g /ha measured after 24 days by spray method; conditions: 576 h, read-out: GI
[2] = tested on: Brassica rapa subsp. oleifera; test: Pre-emergence herbicidal activity against Brassica rapa subsp. oleifera under greenhouse condition at 750 g /ha measured after 24 days by spray method; conditions: 576 h, read-out: GI
[3] = tested on: Echinochloa crus-galli; test: Pre-emergence herbicidal activity against Echinochloa crus-galli (barnyard grass) under greenhouse condition at 750 g /ha measured after 24 days by spray method; conditions: 576 h, read-out: GI
[4] = tested on: Digitaria; test: Post-emergence herbicidal activity against one-leaf stage of Digitaria adscendens under greenhouse condition at 750 g /ha measured after 24 days by spray method; conditions: in Digitaria adscendens, 576 h, read-out: GI
[5] = tested on: Digitaria; test: Pre-emergence herbicidal activity against Digitaria adscendens under greenhouse condition at 750 g /ha measured after 24 days by spray method; conditions: in Digitaria adscendens, 576 h, read-out: GI
[6] = tested on: Amaranthus retroflexus; test: Pre-emergence herbicidal activity against Amaranthus retroflexus under greenhouse condition at 750 g /ha measured after 24 days by spray method; conditions: 576 h, read-out: GI
[7] = tested on: Amaranthus retroflexus; test: Post-emergence herbicidal activity against one-leaf stage of Amaranthus retroflexus under greenhouse condition at 750 g /ha measured after 24 days by spray method; conditions: 576 h, read-out: GI
[8] = tested on: Spirodela polyrhiza; test: Bleaching herbicidal activity in Spirodela polyrhiza fronds cultured in compound-containing in medium assessed as chlorophyll inhibition at 10 ug/ml after 7 days; conditions: 168 h
[9] = tested on: Spirodela polyrhiza; test: Bleaching herbicidal activity in Spirodela polyrhiza fronds cultured in compound-containing in medium assessed as chlorophyll inhibition at 1 ug/ml after 7 days; conditions: 168 h
[10] = tested on: Echinochloa crus-galli; test: Post-emergence herbicidal activity against one-leaf stage of Echinochloa crus-galli (barnyard grass) under greenhouse condition at 750 g /ha measured after 24 days by spray method; conditions: 576 h, read-out: GI

SMILES: Cc1cc(C)cc(Oc2nnc(C)cc2-c2cccc(C(F)(F)F)c2)c1
- inhibition of growth at 750 g/ha [1]: 56%
- inhibition of growth at 750 g/ha [2]: 0%
- inhibition of growth at 750 g/ha [3]: 10%
- inhibition of growth at 750 g/ha [4]: 0%
- inhibition of growth at 750 g/ha [5]: 11%
- inhibition of growth at 750 g/ha [6]: 10%
- inhibition of growth at 750 g/ha [7]: 8%
- inhibition at 10 µg/mL [8]: 63%
- inhibition at 1 µg/mL [9]: 42%
- inhibition of growth at 750 g/ha [10]: 6%

SMILES: COc1ccc(COc2nnc(C)cc2-c2cccc(C(F)(F)F)c2)cc1
- inhibition of growth at 750 g/ha [1]: 13%
- inhibition of growth at 750 g/ha [2]: 0%
- inhibition of growth at 750 g/ha [3]: 39%
- inhibition of growth at 750 g/ha [4]: 20%
- inhibition of growth at 750 g/ha [5]: 48%
- inhibition of growth at 750 g/ha [6]: 0%
- inhibition of growth at 750 g/ha [7]: 16%
- inhibition at 10 µg/mL [8]: 72%
- inhibition at 1 µg/mL [9]: 0%
- inhibition of growth at 750 g/ha [10]: 0%

SMILES: Cc1cccc(COc2nnc(C)cc2-c2cccc(C(F)(F)F)c2)c1
- inhibition of growth at 750 g/ha [1]: 13%
- inhibition of growth at 750 g/ha [2]: 0%
- inhibition of growth at 750 g/ha [3]: 10%
- inhibition of growth at 750 g/ha [4]: 0%
- inhibition of growth at 750 g/ha [5]: 0%
- inhibition of growth at 750 g/ha [6]: 0%
- inhibition of growth at 750 g/ha [7]: 22%
- inhibition at 10 µg/mL [8]: 46%
- inhibition at 1 µg/mL [9]: 43%
- inhibition of growth at 750 g/ha [10]: 0%

SMILES: Cc1cc(-c2cccc(C(F)(F)F)c2)c(Oc2cccc(Cl)c2)nn1
- inhibition of growth at 750 g/ha [1]: 100%
- inhibition of growth at 750 g/ha [2]: 11%
- inhibition of growth at 750 g/ha [3]: 6%
- inhibition of growth at 750 g/ha [4]: 74%
- inhibition of growth at 750 g/ha [5]: 7%
- inhibition of growth at 750 g/ha [6]: 0%
- inhibition of growth at 750 g/ha [7]: 63%
- inhibition at 10 µg/mL [8]: 72%
- inhibition at 1 µg/mL [9]: 72%
- inhibition of growth at 750 g/ha [10]: 57%

SMILES: Cc1cc(-c2cccc(C(F)(F)F)c2)c(OCc2ccc(N(C)C)cc2)nn1
- inhibition of growth at 750 g/ha [1]: 7%
- inhibition of growth at 750 g/ha [2]: 4%
- inhibition of growth at 750 g/ha [3]: 17%
- inhibition of growth at 750 g/ha [4]: 11%
- inhibition of growth at 750 g/ha [5]: 6%
- inhibition of growth at 750 g/ha [6]: 11%
- inhibition of growth at 750 g/ha [7]: 21%
- inhibition at 10 µg/mL [8]: 97%
- inhibition at 1 µg/mL [9]: 64%
- inhibition of growth at 750 g/ha [10]: 0%

SMILES: Cc1cc(-c2cccc(C(F)(F)F)c2)c(OCc2cccc(Cl)c2)nn1
- inhibition of growth at 750 g/ha [1]: 33%
- inhibition of growth at 750 g/ha [2]: 0%
- inhibition of growth at 750 g/ha [3]: 36%
- inhibition of growth at 750 g/ha [4]: 0%
- inhibition of growth at 750 g/ha [5]: 2%
- inhibition of growth at 750 g/ha [6]: 18%
- inhibition of growth at 750 g/ha [7]: 31%
- inhibition at 10 µg/mL [8]: 45%
- inhibition at 1 µg/mL [9]: 29%
- inhibition of growth at 750 g/ha [10]: 0%

SMILES: Cc1cc(-c2cccc(C(F)(F)F)c2)c(Oc2ccccc2C)nn1
- inhibition of growth at 750 g/ha [1]: 55%
- inhibition of growth at 750 g/ha [2]: 0%
- inhibition of growth at 750 g/ha [3]: 0%
- inhibition of growth at 750 g/ha [4]: 11%
- inhibition of growth at 750 g/ha [5]: 7%
- inhibition of growth at 750 g/ha [6]: 0%
- inhibition of growth at 750 g/ha [7]: 50%
- inhibition at 10 µg/mL [8]: 73%
- inhibition at 1 µg/mL [9]: 8%
- inhibition of growth at 750 g/ha [10]: 24%

SMILES: Cc1cc(-c2cccc(C(F)(F)F)c2)c(Oc2ccccc2-c2ccccc2)nn1
- inhibition of growth at 750 g/ha [1]: 0%
- inhibition of growth at 750 g/ha [2]: 0%
- inhibition of growth at 750 g/ha [3]: 0%
- inhibition of growth at 750 g/ha [4]: 0%
- inhibition of growth at 750 g/ha [5]: 0%
- inhibition of growth at 750 g/ha [6]: 18%
- inhibition of growth at 750 g/ha [7]: 25%
- inhibition at 10 µg/mL [8]: 33%
- inhibition at 1 µg/mL [9]: 29%
- inhibition of growth at 750 g/ha [10]: 0%

SMILES: Cc1cc(-c2cccc(C(F)(F)F)c2)c(Oc2ccccc2C(F)(F)F)nn1
- inhibition of growth at 750 g/ha [1]: 46%
- inhibition of growth at 750 g/ha [2]: 10%
- inhibition of growth at 750 g/ha [3]: 11%
- inhibition of growth at 750 g/ha [4]: 0%
- inhibition of growth at 750 g/ha [5]: 0%
- inhibition of growth at 750 g/ha [6]: 0%
- inhibition of growth at 750 g/ha [7]: 3%
- inhibition at 10 µg/mL [8]: 37%
- inhibition at 1 µg/mL [9]: 32%
- inhibition of growth at 750 g/ha [10]: 12%

SMILES: Cc1cc(-c2cccc(C(F)(F)F)c2)c(OCc2ccc(Cl)cc2)nn1
- inhibition of growth at 750 g/ha [1]: 72%
- inhibition of growth at 750 g/ha [2]: 17%
- inhibition of growth at 750 g/ha [3]: 21%
- inhibition of growth at 750 g/ha [4]: 0%
- inhibition of growth at 750 g/ha [5]: 6%
- inhibition of growth at 750 g/ha [6]: 9%
- inhibition of growth at 750 g/ha [7]: 45%
- inhibition at 10 µg/mL [8]: 66%
- inhibition at 1 µg/mL [9]: 53%
- inhibition of growth at 750 g/ha [10]: 0%

SMILES: Cc1cc(-c2cccc(C(F)(F)F)c2)c(OCc2ccc(F)cc2)nn1
- inhibition of growth at 750 g/ha [1]: 87%
- inhibition of growth at 750 g/ha [2]: 8%
- inhibition of growth at 750 g/ha [3]: 24%
- inhibition of growth at 750 g/ha [4]: 56%
- inhibition of growth at 750 g/ha [5]: 0%
- inhibition of growth at 750 g/ha [6]: 8%
- inhibition of growth at 750 g/ha [7]: 41%
- inhibition at 10 µg/mL [8]: 87%
- inhibition at 1 µg/mL [9]: 76%
- inhibition of growth at 750 g/ha [10]: 2%

SMILES: Cc1cc(-c2cccc(C(F)(F)F)c2)c(OCc2c(Cl)cccc2Cl)nn1
- inhibition of growth at 750 g/ha [1]: 20%
- inhibition of growth at 750 g/ha [2]: 2%
- inhibition of growth at 750 g/ha [3]: 1%
- inhibition of growth at 750 g/ha [4]: 0%
- inhibition of growth at 750 g/ha [5]: 41%
- inhibition of growth at 750 g/ha [6]: 15%
- inhibition of growth at 750 g/ha [7]: 34%
- inhibition at 10 µg/mL [8]: 26%
- inhibition at 1 µg/mL [9]: 4%
- inhibition of growth at 750 g/ha [10]: 4%

SMILES: Cc1cc(C)cc(COc2nnc(C)cc2-c2cccc(C(F)(F)F)c2)c1
- inhibition of growth at 750 g/ha [1]: 36%
- inhibition of growth at 750 g/ha [2]: 0%
- inhibition of growth at 750 g/ha [3]: 1%
- inhibition of growth at 750 g/ha [4]: 24%
- inhibition of growth at 750 g/ha [5]: 0%
- inhibition of growth at 750 g/ha [6]: 2%
- inhibition of growth at 750 g/ha [7]: 10%
- inhibition at 10 µg/mL [8]: 71%
- inhibition at 1 µg/mL [9]: 0%
- inhibition of growth at 750 g/ha [10]: 11%

SMILES: COc1ccccc1COc1nnc(C)cc1-c1cccc(C(F)(F)F)c1
- inhibition of growth at 750 g/ha [1]: 16%
- inhibition of growth at 750 g/ha [2]: 0%
- inhibition of growth at 750 g/ha [3]: 0%
- inhibition of growth at 750 g/ha [4]: 10%
- inhibition of growth at 750 g/ha [5]: 33%
- inhibition of growth at 750 g/ha [6]: 0%
- inhibition of growth at 750 g/ha [7]: 25%
- inhibition at 10 µg/mL [8]: 72%
- inhibition at 1 µg/mL [9]: 18%
- inhibition of growth at 750 g/ha [10]: 1%

SMILES: Cc1ccc(Oc2nnc(C)cc2-c2cccc(C(F)(F)F)c2)c(C)c1
- inhibition of growth at 750 g/ha [1]: 45%
- inhibition of growth at 750 g/ha [2]: 0%
- inhibition of growth at 750 g/ha [3]: 15%
- inhibition of growth at 750 g/ha [4]: 19%
- inhibition of growth at 750 g/ha [5]: 0%
- inhibition of growth at 750 g/ha [6]: 0%
- inhibition of growth at 750 g/ha [7]: 64%
- inhibition at 10 µg/mL [8]: 41%
- inhibition at 1 µg/mL [9]: 0%
- inhibition of growth at 750 g/ha [10]: 18%

SMILES: Cc1cc(-c2cccc(C(F)(F)F)c2)c(Oc2ccccc2Br)nn1
- inhibition of growth at 750 g/ha [1]: 34%
- inhibition of growth at 750 g/ha [2]: 0%
- inhibition of growth at 750 g/ha [3]: 0%
- inhibition of growth at 750 g/ha [4]: 21%
- inhibition of growth at 750 g/ha [5]: 7%
- inhibition of growth at 750 g/ha [6]: 0%
- inhibition of growth at 750 g/ha [7]: 0%
- inhibition at 10 µg/mL [8]: 78%
- inhibition at 1 µg/mL [9]: 0%
- inhibition of growth at 750 g/ha [10]: 30%

SMILES: Cc1cc(-c2cccc(C(F)(F)F)c2)c(Oc2ccccc2F)nn1
- inhibition of growth at 750 g/ha [1]: 69%
- inhibition of growth at 750 g/ha [2]: 4%
- inhibition of growth at 750 g/ha [3]: 6%
- inhibition of growth at 750 g/ha [4]: 16%
- inhibition of growth at 750 g/ha [5]: 11%
- inhibition of growth at 750 g/ha [6]: 23%
- inhibition of growth at 750 g/ha [7]: 73%
- inhibition at 10 µg/mL [8]: 66%
- inhibition at 1 µg/mL [9]: 63%
- inhibition of growth at 750 g/ha [10]: 5%
